Measured values reported in article PMC5656322, “BAK1 is involved in AtRALF1-induced inhibition of root cell expansion” (PLoS Genetics, 2017).
Where no end group is shown, it is not given here.

Assays:
[1] = test system: BAK7 (BAK7-ECD); assay: Yeast two-hybrid with BAK7-ECD; format: binding, Arabidopsis thaliana; details: yeast AH109, medium lacking Leu, Trp, His
Source text: Fig 6 AtRALF1 interacts physically with BAK1 protein. (A) The active AtRALF1 peptide interacts with the extracellular domain (ECD) of BAK1 (BAK1-ECD) in yeast. The AtRALF1 protein fused to the GAL4 DNA-binding domain (AtRALF1-pGBKT7) was used as bait to test its interaction with the extracellular domain of the proteins fused to the GAL4 activation domain (pGADT7): BAK1 (BAK1-ECD), BAK7 (BAK7-ECD), BRI1 (BRI1-ECD) and FLS2 (FLS2-ECD). (B) Blueprint showing the truncated proteins from the extracellular domain of BAK1 tested in the two-hybrid assay. The extracellular domain of BAK1 comprises leucine zippers (LZ), 5 leucine rich-regions (LRRs) and a proline-rich region (pro-rich). (C) AtRALF1-pGBKT7 was used as bait to test its interaction with truncated proteins fused to the GAL4 activation domain (pGADT7). […] HA-BAK1-ECD was detected with an anti-HA antibody. AtRALF1 was detected with an anti-RALF antibody. […] BAK1-GFP was detected with an anti-GFP antibody. […]
The coding regions of the mature peptides AtRALF1 and AtRALF34 were amplified from Arabidopsis genomic DNA and fused to the GAL4 DNA-binding domain and the MYC epitope tag using the NdeI/BamHI sites in the pGBKT7 (Clontech) vector. […] The proteins fused to the HA and MYC epitope tags were detected by protein blotting. […]

[2] = test system: HA-BAK1-ECD; assay: Co-immunoprecipitation in vitro; format: binding, Arabidopsis thaliana; details: 100 nM each protein, pH 6.3, overnight 4 °C, agarose anti-HA beads
Description: The purified recombinant proteins AtRALF1 and HA-BAK1-ECD and the synthetic peptides RALF1(9–49) and RALF1(I6A) were combined in 200 μl of interaction buffer pH 6.3 (100 mM NaCl; 1 mM PMSF; 0.5%Triton X; 2.7 mM KCl; 8 mM NaH2PO4; 2 mM KH2PO4) overnight at 4 °C. A 100-nM concentration of each protein was used. This solution was incubated with agarose anti-HA beads (EZview Red Anti-HA Affinity Gel, Sigma) for 30 min at 4 °C to immunoprecipitate the proteins, washed 5 times with interaction buffer, eluted in 1X SDS sample buffer containing 10% β-mercaptoethanol and applied to an SDS-PAGE gel. The immunoprecipitated HA-BAK1-ECD and co-immunoprecipitated AtRALF1 were analyzed by protein blotting as described. The primary and secondary antibodies used to detect AtRALF1 were anti-AtRALF1 (1:10,000, Celula B, Immunology Laboratory, UFRGS, Brazil) and goat anti-rabbit HRP-conjugated secondary antibody (1: 10,000, BioRad), respectively.

[3] = test system: BAK1 gene; details: Arabidopsis plants; ref [10]; cited from earlier work
Source text: It has been previously shown through microarray experiments that the treatment of Arabidopsis plants with AtRALF1 causes BAK1 gene induction by approximately 1.56-fold. Our data are consistent with that previous observation and add a new gene to the list of AtRALF1-inducible genes. […] The fact that AtRALF1 peptide and BL treatment both induce BAK1 gene expression provides further evidence that BAK1 ...

[4] = test system: cell suspensions; details: cited from earlier work

Row | Substance | interaction with BAK7-ECD (Y2H complementation) [1] | co-immunoprecipitation with HA-BAK1-ECD [2] | BAK1 gene induction (microarray) [3] | alkalinization of the extracellular media ([4]; ref [1],[11]) | alkalinization of the extracellular medium ([4]; ref [5])
1 | AtRALF1: root-specific RALF isoform in Arabidopsis; recombinant peptide hormone produced in E. coli (ATTKYISYQSLKRNSVPCSRRGASYYNCQNGAQANPYSRGCSKIARCRS; ends and bridges not checked; cysteine pairing not given here) | able to complement only the BAK1-ECD construct | co-immunoprecipitated | approximately 1.56 -fold | induces a rapid alkalinization of the extracellular media of cell suspensions | alkalinizes the extracellular medium of cell suspensions
2 | RALF1(9–49): inactive AtRALF1 peptide which has a deletion of the first 8 amino acids (QSLKRNSVPCSRRGASYYNCQNGAQANPYSRGCSKIARCRS; ends and bridges not checked; cysteine pairing not given here; UniProt Q9SRY3 80-120, looked up, fragment) | – | did not co-immunoprecipitate with BAK1 | – | – | –
